Data published in patent publication US20250230154A1, “COMPOUND HAVING SHP2 PROTEIN DEGRADING ACTIVITY, AND MEDICAL USES THEREOF” (UBIX THERAPEUTICS, INC., priority 2021, published 2025).

Biological target: T1, SHP2 protein (Homo sapiens, UniProt Q06124)
T1 sequence (Q06124 1-593): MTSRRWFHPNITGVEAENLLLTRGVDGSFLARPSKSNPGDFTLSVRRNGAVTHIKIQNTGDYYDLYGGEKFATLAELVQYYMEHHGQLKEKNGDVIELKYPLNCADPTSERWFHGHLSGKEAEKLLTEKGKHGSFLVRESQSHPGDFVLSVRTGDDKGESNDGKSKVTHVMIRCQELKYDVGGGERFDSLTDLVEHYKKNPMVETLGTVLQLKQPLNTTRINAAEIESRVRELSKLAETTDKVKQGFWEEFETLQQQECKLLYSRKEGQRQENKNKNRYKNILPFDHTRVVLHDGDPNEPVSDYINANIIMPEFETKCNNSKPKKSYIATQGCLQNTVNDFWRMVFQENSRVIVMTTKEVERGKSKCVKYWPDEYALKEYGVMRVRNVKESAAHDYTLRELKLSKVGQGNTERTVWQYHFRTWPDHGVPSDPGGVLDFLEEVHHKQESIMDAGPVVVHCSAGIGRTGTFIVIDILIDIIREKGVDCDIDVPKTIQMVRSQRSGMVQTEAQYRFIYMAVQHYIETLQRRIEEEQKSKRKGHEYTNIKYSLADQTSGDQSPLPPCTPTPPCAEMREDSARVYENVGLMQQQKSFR
Assay: Measurement of SHP2 protein degradation in MV-4-11 cells (western blotting)
Assay type: cell-based
Set-up: endogenous in cells; host or cells: MV-4-11
Conditions: for SHP2 degradation (%) 10 nM / SHP2 degradation (%) 100 nM / SHP2 degradation (%) 1000 nM: MV-4-11 cells, 24 hours
Outline: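 SHP2 protein levels were assessed by western blotting in MV-4-11 cells after a 24 hour compound treatment. Lysates were sonicated, centrifuged, normalized by BCA assay at 562 nm, run on Bis-tris 4-12% gels, transferred to NC membrane, probed with anti-SHPTP2 (70 kDa) and anti-GAPDH (37 kDa) antibodies, and detected on LI-COR Odyssey.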

Row | Structure (SMILES) | SHP2 degradation (%) 10 nM [%] | SHP2 degradation (%) 100 nM [%] | SHP2 degradation (%) 1000 nM [%] | SHP2 protein degradation activity (in words) (comment on Table 4)
1 | Cc1ncsc1-c1ccc(CNC(=O)[C@@H]2C[C@@H](O)CN2C(=O)[C@@H](NC(=O)C2(F)CC2)C(C)(C)C)c(OCC2CCN(C(=O)CC(=O)Nc3cccc(Sc4cnc(N5CCC(C)(N)CC5)cn4)c3Cl)CC2)c1 [Example 29, (2S,4R)—N-(2-((1-(3-((3-((5-(4-amino-4-methylpiperidin-1-yl)pyrazin-2-yl)thio)-2-chlorophenyl)amino)-3-oxopropanoyl)piperidin-4-yl)methoxy)-4-(4-methylthiazol-5-yl)benzyl)-1-((S)-2-(1-fluorocyclopropane-1-carboxamido)-3,3-dimethylbutanoyl)-4-hydroxypyrrolidine-2-carboxamide] | 84 | 95.5 | – | –
2 | Cc1ncsc1-c1ccc(CNC(=O)[C@@H]2C[C@@H](O)CN2C(=O)[C@@H](NC(=O)C2(F)CC2)C(C)(C)C)c(OCCN2CCN(C(=O)CC(=O)Nc3cccc(Sc4cnc(N5CCC(C)(N)CC5)cn4)c3Cl)CC2)c1 [Example 53, (2S,4R)—N-(2-(2-(4-(3-((3-((5-(4-amino-4-methylpiperidin-1-yl)pyrazin-2-yl)thio)-2-chlorophenyl)amino)-3-oxopropanoyl)piperazin-1-yl)ethoxy)-4-(4-methylthiazol-5-yl)benzyl)-1-((S)-2-(1-fluorocyclopropane-1-carboxamido)-3,3-dimethylbutanoyl)-4-hydroxypyrrolidine-2-carboxamide] | 83.9 | 97.8 | – | –
3 | CC(=O)N[C@H](C(=O)N1C[C@H](O)C[C@H]1C(=O)NCc1ccc(-c2scnc2C)cc1OCCCC1CCN(C(=O)CC(=O)Nc2cccc(Sc3cnc(N4CCC(C)(CN)CC4)cn3)c2Cl)CC1)C(C)(C)C [Example 43, (2S,4R)-1-((S)-2-acetamido-3,3-dimethylbutanoyl)-N-(2-(3-(1-(3-((3-((5-(4-(aminomethyl)-4-methylpiperidin-1-yl)pyrazin-2-yl)thio)-2-chlorophenyl)amino)-3-oxopropanoyl)piperidin-4-yl)propoxy)-4-(4-methylthiazol-5-yl)benzyl)-4-hydroxypyrrolidine-2-carboxamide] | 80.0 | 96.5 | – | –
4 | CC(=O)N[C@H](C(=O)N1C[C@H](O)C[C@H]1C(=O)NCc1ccc(-c2scnc2C)cc1OCCCN1CCC(CC(=O)Nc2cccc(Sc3cnc(N4CCC(C)(CN)CC4)cn3)c2Cl)CC1)C(C)(C)C [Example 12, (2S,4R)-1-((S)-2-acetamido-3,3-dimethylbutanoyl)-N-(2-(3-(4-(2-((3-((5-(4-(aminomethyl)-4-methylpiperidin-1-yl)pyrazin-2-yl)thio)-2-chlorophenyl)amino)-2-oxoethyl)piperidin-1-yl)propoxy)-4-(4-methylthiazol-5-yl)benzyl)-4-hydroxypyrrolidine-2-carboxamide] | 23.9 | 88.4 | 93.3 | –
5 | Cc1ncsc1-c1ccc(CNC(=O)[C@@H]2C[C@@H](O)CN2C(=O)[C@@H](NC(=O)C2(F)CC2)C(C)(C)C)c(OCCNC(=O)c2cnc(N3CCC(CCCC(=O)Nc4cccc(Sc5cnc(N6CCC(C)(CN)CC6)cn5)c4Cl)CC3)nc2)c1 [Example 89, 2-(4-(4-((3-((5-(4-(aminomethyl)-4-methylpiperidin-1-yl)pyrazin-2-yl)thio)-2-chlorophenyl)amino)-4-oxobutyl)piperidin-1-yl)-N-(2-(2-(((2S,4R)-1-((S)-2-(1-fluorocyclopropane-1-carboxamido)-3,3-dimethylbutanoyl)-4-hydroxypyrrolidine-2-carboxamido)methyl)-5-(4-methylthiazol-5-yl)phenoxy)ethyl)pyrimidine-5-carboxamide] | 4 | 95 | 97 | –
6 | Cc1ncsc1-c1ccc(CNC(=O)[C@@H]2C[C@@H](O)CN2C(=O)[C@@H](NC(=O)C2(F)CC2)C(C)(C)C)c(OCCCN2CCN(CC(=O)Nc3cccc(Sc4cnc(N5CCC(C)(CN)CC5)cn4)c3Cl)C(=O)C2)c1 [Example 77, (2S,4R)—N-(2-(3-(4-(2-((3-((5-(4-(aminomethyl)-4-methylpiperidin-1-yl)pyrazin-2-yl)thio)-2-chlorophenyl)amino)-2-oxoethyl)-3-oxopiperazin-1-yl)propoxy)-4-(4-methylthiazol-5-yl)benzyl)-1-((S)-2-(1-fluorocyclopropane-1-carboxamido)-3,3-dimethylbutanoyl)-4-hydroxypyrrolidine-2-carboxamide] | 92.4 | 99.5 | – | –
7 | Cc1ncsc1-c1ccc(CNC(=O)[C@@H]2C[C@@H](O)CN2C(=O)[C@@H](NC(=O)C2(F)CC2)C(C)(C)C)c(OCCOc2cnc(N3CCC(CCCC(=O)Nc4cccc(Sc5cnc(N6CCC(C)(CN)CC6)cn5)c4Cl)CC3)nc2)c1 [Example 90, (2S,4R)—N-(2-(2-((2-(4-(4-((3-((5-(4-(aminomethyl)-4-methylpiperidin-1-yl)pyrazin-2-yl)thio)-2-chlorophenyl)amino)-4-oxobutyl)piperidin-1-yl)pyrimidin-5-yl)oxy)ethoxy)-4-(4-methylthiazol-5-yl)benzyl)-1-((S)-2-(1-fluorocyclopropane-1-carboxamido)-3,3-dimethylbutanoyl)-4-hydroxypyrrolidine-2-carboxamide] | 6 | 97 | 98 | –
8 | Cc1ncsc1-c1ccc(CNC(=O)[C@@H]2C[C@@H](O)CN2C(=O)[C@@H](NC(=O)C2(F)CC2)C(C)(C)C)c(OCCCC2CCN(C(=O)CC(=O)Nc3cccc(Sc4ncc(N5CCC(C)(N)CC5)nc4N)c3Cl)CC2)c1 [Example 40, (2S,4R)—N-(2-(3-(1-(3-((3-((3-amino-5-(4-amino-4-methylpiperidin-1-yl)pyrazin-2-yl)thio)-2-chlorophenyl)amino)-3-oxopropanoyl)piperidin-4-yl)propoxy)-4-(4-methylthiazol-5-yl)benzyl)-1-((S)-2-(1-fluorocyclopropane-1-carboxamido)-3,3-dimethylbutanoyl)-4-hydroxypyrrolidine-2-carboxamide] | 67.0 | 95.0 | – | –
9 | Cc1ncsc1-c1ccc(CNC(=O)[C@@H]2C[C@@H](O)CN2C(=O)[C@@H](NC(=O)C2(F)CC2)C(C)(C)C)c(OCCCCN2CCN(CC(=O)Nc3cccc(Sc4cnc(N5CCC(C)(CN)CC5)cn4)c3Cl)C(=O)C2)c1 [Example 78, (2S,4R)—N-(2-(4-(4-(2-((3-((5-(4-(aminomethyl)-4-methylpiperidin-1-yl)pyrazin-2-yl)thio)-2-chlorophenyl)amino)-2-oxoethyl)-3-oxopiperazin-1-yl)butoxy)-4-(4-methylthiazol-5-yl)benzyl)-1-((S)-2-(1-fluorocyclopropane-1-carboxamido)-3,3-dimethylbutanoyl)-4-hydroxypyrrolidine-2-carboxamide] | 86.6 | 99.5 | – | –
10 | Cc1ncsc1-c1ccc(CNC(=O)[C@@H]2C[C@@H](O)CN2C(=O)[C@@H](NC(=O)C2(F)CC2)C(C)(C)C)c(OC2CC3(CCN(c4ccc(C(=O)Nc5cccc(Sc6cnc(N7CCC(C)(CN)CC7)cn6)c5Cl)nn4)CC3)C2)c1 [Example 88, N-(3-((5-(4-(aminomethyl)-4-methylpiperidin-1-yl)pyrazin-2-yl)thio)-2-chlorophenyl)-6-(2-(2-(((2S,4R)-1-((S)-2-(1-fluorocyclopropane-1-carboxamido)-3,3-dimethylbutanoyl)-4-hydroxypyrrolidine-2-carboxamido)methyl)-5-(4-methylthiazol-5-yl)phenoxy)-7-azaspiro[3.5]nonan-7-yl)pyridazine-3-carboxamide] | 16.5 | 66.1 | – | –
11 | Cc1ncsc1-c1ccc(CNC(=O)[C@@H]2C[C@@H](O)CN2C(=O)[C@@H](NC(=O)C2(F)CC2)C(C)(C)C)c(OCCN2CCN(C(=O)C(C)(C)C(=O)Nc3cccc(Sc4cnc(N5CCC(C)(CN)CC5)cn4)c3Cl)CC2)c1 [Example 59, (2S,4R)—N-(2-(2-(4-(3-((3-((5-(4-(aminomethyl)-4-methylpiperidin-1-yl)pyrazin-2-yl)thio)-2-chlorophenyl)amino)-2,2-dimethyl-3-oxopropanoyl)piperazin-1-yl)ethoxy)-4-(4-methylthiazol-5-yl)benzyl)-1-((S)-2-(1-fluorocyclopropane-1-carboxamido)-3,3-dimethylbutanoyl)-4-hydroxypyrrolidine-2-carboxamide] | −2.0 | 3.0 | – | somewhat decreased
12 | Cc1ncsc1-c1ccc(CNC(=O)[C@@H]2C[C@@H](O)CN2C(=O)[C@@H](NC(=O)C2(F)CC2)C(C)(C)C)c(OCCCN2CCC(O)(CC(=O)Nc3cccc(Sc4cnc(N5CCC(C)(CN)CC5)cn4)c3Cl)CC2)c1 [Example 20] | 54.9 | 99.0 | – | –
